In ChEMBL document CHEMBL1129213, “Synthesis and structure-activity relationships of potent conformationally restricted retinoid X receptor ligands” (Bioorg Med Chem Lett, 1997):

Legend:
[1] = molecular target: T1, Retinoic acid receptor beta (Homo sapiens, UniProt P10826); experiment: Transcriptional activation in CV-1 cells expressing retinoic acid receptor RAR beta; assay type: functional, cell-based
T1 sequence (P10826 whole entry): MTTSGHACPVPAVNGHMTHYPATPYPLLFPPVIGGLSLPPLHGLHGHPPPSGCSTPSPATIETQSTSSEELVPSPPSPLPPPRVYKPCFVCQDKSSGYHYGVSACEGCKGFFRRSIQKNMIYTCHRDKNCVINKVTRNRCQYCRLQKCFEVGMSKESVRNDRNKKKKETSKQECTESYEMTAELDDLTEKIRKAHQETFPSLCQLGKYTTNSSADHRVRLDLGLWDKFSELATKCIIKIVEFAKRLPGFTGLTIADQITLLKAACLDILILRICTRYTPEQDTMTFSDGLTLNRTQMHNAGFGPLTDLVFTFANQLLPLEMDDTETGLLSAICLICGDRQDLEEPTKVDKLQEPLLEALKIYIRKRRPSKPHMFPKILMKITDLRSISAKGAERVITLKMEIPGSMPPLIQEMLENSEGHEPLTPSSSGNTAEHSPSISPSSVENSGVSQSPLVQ

[2] = molecular target: T2, Retinoic acid receptor RXR-alpha (Homo sapiens, UniProt P19793); experiment: Transcriptional activation in CV-1 cells expressing retinoid X receptor RXR alpha; assay type: functional, cell-based
T2 sequence (P19793 whole entry): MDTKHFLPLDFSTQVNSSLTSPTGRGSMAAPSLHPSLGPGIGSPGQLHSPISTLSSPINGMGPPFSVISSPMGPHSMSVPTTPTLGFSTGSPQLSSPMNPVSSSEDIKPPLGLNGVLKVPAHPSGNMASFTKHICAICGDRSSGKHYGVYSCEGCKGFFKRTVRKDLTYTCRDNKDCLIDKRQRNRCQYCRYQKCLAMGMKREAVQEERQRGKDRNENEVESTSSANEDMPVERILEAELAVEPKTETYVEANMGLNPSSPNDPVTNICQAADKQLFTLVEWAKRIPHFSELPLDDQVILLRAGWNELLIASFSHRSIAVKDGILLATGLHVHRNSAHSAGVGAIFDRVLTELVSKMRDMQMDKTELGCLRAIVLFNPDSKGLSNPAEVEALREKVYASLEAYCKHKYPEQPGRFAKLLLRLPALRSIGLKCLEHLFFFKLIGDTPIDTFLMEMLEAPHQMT

[3] = molecular target: T2, Retinoic acid receptor RXR-alpha; experiment: Inhibition of [3H]9-cis-RA binding to RXR alpha receptor
[4] = molecular target: T3, Retinoic acid receptor alpha (Homo sapiens, UniProt P10276); experiment: Transcriptional activation in CV-1 cells expressing retinoic acid receptor RAR alpha; not active; assay type: functional, cell-based
T3 sequence (P10276 whole entry): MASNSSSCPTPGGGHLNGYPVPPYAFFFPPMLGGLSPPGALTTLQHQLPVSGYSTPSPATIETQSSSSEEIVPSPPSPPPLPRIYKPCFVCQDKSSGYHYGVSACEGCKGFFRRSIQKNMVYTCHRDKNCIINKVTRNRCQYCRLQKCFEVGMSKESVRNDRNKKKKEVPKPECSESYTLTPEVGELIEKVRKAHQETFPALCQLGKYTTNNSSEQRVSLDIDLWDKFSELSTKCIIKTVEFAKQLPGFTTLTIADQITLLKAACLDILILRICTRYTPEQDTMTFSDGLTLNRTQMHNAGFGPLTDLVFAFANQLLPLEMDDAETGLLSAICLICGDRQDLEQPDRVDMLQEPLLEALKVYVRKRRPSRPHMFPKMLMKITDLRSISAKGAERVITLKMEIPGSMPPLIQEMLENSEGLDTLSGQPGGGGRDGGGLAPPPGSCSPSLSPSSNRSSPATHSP

[5] = molecular target: T1, Retinoic acid receptor beta; experiment: Inhibition of [3H]ATRA binding to RAR beta receptor
[6] = molecular target: T4, Retinoic acid receptor RXR-beta (Homo sapiens, UniProt P28702); experiment: Inhibition of [3H]9-cis-RA binding to RXR beta receptor
T4 sequence (P28702 whole entry): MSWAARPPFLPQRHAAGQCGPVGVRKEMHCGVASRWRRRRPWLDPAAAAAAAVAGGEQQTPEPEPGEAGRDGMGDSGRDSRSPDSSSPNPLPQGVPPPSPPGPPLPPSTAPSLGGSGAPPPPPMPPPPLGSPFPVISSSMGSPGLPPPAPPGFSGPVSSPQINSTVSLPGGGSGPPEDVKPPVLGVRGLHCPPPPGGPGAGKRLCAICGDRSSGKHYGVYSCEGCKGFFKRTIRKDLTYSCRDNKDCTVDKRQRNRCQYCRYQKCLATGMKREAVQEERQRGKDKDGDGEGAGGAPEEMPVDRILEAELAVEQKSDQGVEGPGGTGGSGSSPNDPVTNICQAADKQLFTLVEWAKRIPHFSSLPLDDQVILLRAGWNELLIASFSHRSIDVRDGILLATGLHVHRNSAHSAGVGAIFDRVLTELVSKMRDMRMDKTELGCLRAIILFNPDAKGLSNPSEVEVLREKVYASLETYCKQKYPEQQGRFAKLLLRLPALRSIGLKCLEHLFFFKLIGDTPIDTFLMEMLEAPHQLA

[7] = molecular target: T5, Retinoic acid receptor RXR-gamma (Homo sapiens, UniProt P48443); experiment: Transcriptional activation in CV-1 cells expressing retinoid X receptor RXR gamma; assay type: functional, cell-based
T5 sequence (P48443 whole entry): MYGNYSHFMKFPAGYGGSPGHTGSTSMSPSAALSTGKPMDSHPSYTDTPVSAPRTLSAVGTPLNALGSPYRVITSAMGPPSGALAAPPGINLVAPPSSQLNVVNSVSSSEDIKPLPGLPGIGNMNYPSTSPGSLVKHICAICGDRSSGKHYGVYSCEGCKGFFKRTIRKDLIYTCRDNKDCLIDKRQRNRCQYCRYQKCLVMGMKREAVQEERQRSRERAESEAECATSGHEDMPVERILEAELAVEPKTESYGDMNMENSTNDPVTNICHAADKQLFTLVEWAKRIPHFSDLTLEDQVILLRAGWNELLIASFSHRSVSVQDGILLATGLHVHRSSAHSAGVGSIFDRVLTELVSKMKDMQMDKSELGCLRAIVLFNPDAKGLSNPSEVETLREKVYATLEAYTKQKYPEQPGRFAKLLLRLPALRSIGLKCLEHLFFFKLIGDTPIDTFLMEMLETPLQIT

[8] = molecular target: T5, Retinoic acid receptor RXR-gamma; experiment: Inhibition of [3H]9-cis-RA binding to RXR gamma receptor
[9] = molecular target: T6, Retinoic acid receptor gamma (Homo sapiens, UniProt P13631); experiment: Inhibition of [3H]ATRA binding to RAR gamma receptor
T6 sequence (P13631 whole entry): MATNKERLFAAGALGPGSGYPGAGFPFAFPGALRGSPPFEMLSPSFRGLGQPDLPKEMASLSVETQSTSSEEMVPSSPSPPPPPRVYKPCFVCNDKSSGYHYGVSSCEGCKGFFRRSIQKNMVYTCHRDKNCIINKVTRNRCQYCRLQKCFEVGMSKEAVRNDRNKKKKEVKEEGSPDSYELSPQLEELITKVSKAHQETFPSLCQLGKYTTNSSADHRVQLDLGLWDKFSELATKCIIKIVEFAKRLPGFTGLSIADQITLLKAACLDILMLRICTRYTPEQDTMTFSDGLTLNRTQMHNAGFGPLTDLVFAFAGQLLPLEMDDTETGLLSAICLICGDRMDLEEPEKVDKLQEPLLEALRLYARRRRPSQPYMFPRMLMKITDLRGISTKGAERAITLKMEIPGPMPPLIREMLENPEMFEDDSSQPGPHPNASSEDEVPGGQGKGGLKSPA

[10] = molecular target: T3, Retinoic acid receptor alpha; experiment: Inhibition of [3H]ATRA binding to RAR alpha receptor
[11] = molecular target: T6, Retinoic acid receptor gamma; experiment: Transcriptional activation in CV-1 cells expressing retinoic acid receptor RAR gamma; assay type: functional, cell-based
[12] = molecular target: T4, Retinoic acid receptor RXR-beta; experiment: Transcriptional activation in CV-1 cells expressing retinoid X receptor RXR beta; assay type: functional, cell-based
[13] = molecular target: T3, Retinoic acid receptor alpha; experiment: Transcriptional activation in CV-1 cells expressing retinoic acid receptor RAR alpha; inactive; assay type: functional, cell-based
[14] = molecular target: T1, Retinoic acid receptor beta; settings: cv-1
[15] = molecular target: T6, Retinoic acid receptor gamma; settings: cv-1

| EC50 [1] | EC50 [2] | Ki [3] | EC50 [4] | Ki [5] | Ki [6] | EC50 [7] | Ki [8] | Ki [9] | Ki [10] | EC50 [11] | EC50 [12] | EC50 [13] | EC50 [14] | EC50 [15] | Compound |
| --- | --- | --- | --- | --- | --- | --- | --- | --- | --- | --- | --- | --- | --- | --- | --- |
| 809 nM | 2520 nM | > 1000 nM | Not Active | > 1000 nM | > 1000 nM | 2710 nM | > 1000 nM | > 1000 nM | > 1000 nM | 1780 nM | 2000 nM | – | – | – | CC(/C=C/C1(c2cc3c(cc2C)C(C)(C)CCC3(C)C)CCCC1)=C\C(=O)O |
| – | – | 4 nM | – | > 1000 nM | 4 nM | 7 nM | 5 nM | > 1000 nM | > 1000 nM | – | 13 nM | Not Active | Not Active | – | CC(/C=C/C1(c2cc3c(cc2C)C(C)(C)CCC3(C)C)CC1)=C\C(=O)O |
| – | 51 nM | 92 nM | Not Active | > 1000 nM | 124 nM | 192 nM | 172 nM | > 1000 nM | > 1000 nM | – | 127 nM | – | Not Active | Not Active | CC(/C=C/C1(c2ccc3c(c2)C(C)(C)CCC3(C)C)CCCC1)=C\C(=O)O |

More lines, now with the values behind:

| Compound | EC50 [1] | EC50 [2] | Ki [3] | EC50 [4] | Ki [5] | Ki [6] | EC50 [7] | Ki [8] | Ki [9] | Ki [10] | EC50 [11] | EC50 [12] | EC50 [13] | EC50 [14] | EC50 [15] |
| --- | --- | --- | --- | --- | --- | --- | --- | --- | --- | --- | --- | --- | --- | --- | --- |
| C=C(c1ccc(C(=O)O)cc1)c1ccc2c(c1)C(C)(C)CCC2(C)C | – | – | 150 nM | Not Active | 909 nM | 199 nM | 404 nM | 290 nM | 887 nM | 944 nM | – | 486 nM | – | – | – |
| CC(/C=C/C1(c2ccc3c(c2)C(C)(C)CCC3(C)C)CC1)=C\C(=O)O | 287 nM | 23 nM | 3 nM | Not Active | > 1000 nM | 7 nM | 24 nM | 6 nM | > 1000 nM | > 1000 nM | 399 nM | 19 nM | – | – | – |
